According to patent US20260070917A1, “CYCLIN DEPENDENT KINASE DEGRADERS AND METHODS OF USE THEREOF” (Differentiated Therapeutics Inc, priority 2023, published 2026):
Read-outs that look alike come from different tables or passages of the source.

How the values were obtained:
Assay type in all cases: cell-based
CDK2 = target: T1, CDK2 (Homo sapiens, UniProt P24941); test: HiBit Assay Protocol for CDK2 (HIBIT protein quantification, degradation); conditions: HEK293-CDK2-Hibit cells, compound treatment for 6 hours; for DC50: ABS DC50
T1 construct: host or cells: HEK293-CDK2-Hibit
Method: HiBit Assay Protocol for CDK2
• 1. The culture medium for HEK293-CDK2-Hibit cells was prepared using DMEM with 10% FBS. • 2. Cells were cultivated in T-75 flasks in a cell culture incubator set at 37° C., 5% CO2, 95% relative humidity. Cells were allowed to reach 80-90% confluence before detaching and splitting. • 3. Cultivated cells were rinsed in T-75 flasks with 5 mL PBS. Aspirate off Added was 1.5 mL trypsin, and the cells were incubated at 37° C. for approximately 5 minutes or until the cells detached and floated. • 4. Trypsin was inactivated by adding excess serum containing medium. • 5. Cells were harvested from flask into cell culture medium and then the cell number was counted. HEK293-CDK2-Hibit cells were seeded into 384-well plate (cell density: 1.6×10^5 cells/well/50 uL medium) in DMEM medium according to the plate map below and incubated overnight at 37° C. and 5% CO2. • Note: Cell Cultured Medium: 90% DMEM+10% FBS+1% Penicillin-Streptomycin Liquid
(§1) • 1. Test compounds were dissolved at 10 mM DMS stock solution. 45 uL of stock solution was transferred to a 384 pp-plate. A 3-fold, 10-point dilution was performed via transferring 15 uL compound into 30 uL DMSO by using TECAN liquid handler. • 2. The plates were spinned at room temperature at 1,000 RPM for 1 minute. • 3. 50 nL of diluted compound was transferred from compound source plate into the cell plate by Echo. • 4. After compound treatment for 6 hours, the plate was removed from incubators and equilibrated at room temperature for 15 minutes. The HiBit reagent was prepared, consisting of the following ratios: 10 mL of Nano-Glo®-HiBiT Lytic Buffer, 200 μL of Nano-Glo®-HiBiT Lytic Substrate and 100 uL of LgBiT Protein, mixed thoroughly. 20 μL of HiBit reagent was added into each well and the plates were spinned at room temperature at 1,000 RPM for 1 minute to be detected. Then the plates were shaken at 600 RPM at room temperature for 20 minutes, and read by EnVision. • 5. The inhibition activity was calculated following the formula below:
(§2) [formula] • Note: Where HC is obtained from cells treated with […] only; LC is obtained from culture medium only. • 6. ABS DC50 was calculated by fitting the Curve using Xlfit (v5.3.1.3), equation 201: […]

CCNE1 = target: T2, CCNE1 (Homo sapiens, UniProt P24864); test: HiBit Assay Protocol for CCNE1 (HIBIT protein quantification, degradation); conditions: HEK293-CCNE1-Hibit cells, compound treatment for 6 hours
T2 construct: host or cells: HEK293-CCNE1-Hibit
Method: HiBit Assay Protocol for CCNE1
• 1. The culture medium for HEK293-CCNE1-Hibit cell was prepared using EMEM with […]. • 2. Cells were cultivated in T-75 flasks in a cell culture incubator set at 37° C., 5% CO2, 95% relative humidity. Cells were allowed to reach 80-90% confluence before detaching and splitting. • 3. Cultivated cells were rinsed in T-75 flasks with 5 mL PBS. Aspirate off Added was 1.5 mL trypsin, and the cells were incubated at 37° C. for approximately 5 minutes or until the cells detached and floated. • 4. Trypsin was inactivated by adding excess serum containing medium. • 5. Cells were harvested from flask into cell culture medium and then the cell number was counted. HEK293-CCNE1-Hibit cell were seeded into 384-well plate (cell density: 1.6×10^5 cells/well/50 uL medium) in EMEM medium according to the plate map below and incubated overnight at 37° C. and […]. • Note: Cell Cultured Medium: 90% EMEM+10% FBS+1% Penicillin-Streptomycin Liquid
as §1, with “mM DMSO” for “mM DMS”, “45 μL” for “45 uL”, “100 μL” for “100 uL”, “Protein, mix” for “Protein, mixed”
as §2

CDK9 = target: T3, CDK9 (Homo sapiens, UniProt P50750); test: HiBit Assay Protocol for CDK9 (HIBIT protein quantification, degradation); conditions: HEK293-CDK9-Hibit cells, compound treatment for 6 hours; for Dmax: read-out: CDK9 HIBIT Protein Quantification Maximum
T3 construct: host or cells: HEK293-CDK9-Hibit
Method: HiBit Assay Protocol for CDK9
• 1. The culture medium for HEK293-CDK9-Hibit cell was prepared using DMEM with 10% FBS. • 2. Cells were cultivated in T-75 flasks in a cell culture incubator set at 37° C., 5% CO2, 95% relative humidity. Cells were allowed to reach 80-90% confluence before detaching and splitting. • 3. Cultivated cells were rinsed in T-75 flasks with 5 mL PBS. Aspirated off. Added 1.5 mL trypsin, and incubated the cells at 37° C. for approximately 5 minutes or until the cells detached and floated. • 4. Trypsin was inactivated by adding excess serum containing medium. • 5. Cells were harvested from flask into cell culture medium and then the cell number was counted. HEK293-CDK9-Hibit cells were seeded into 384-well plate (cell density: 1.6×10^5 cells/well/50 uL medium) in DMEM medium according to the plate map below and were incubated overnight at 37° C. and 5% CO2. • Note: Cell Cultured Medium: 90% DMEM+10% FBS+1% Penicillin-Streptomycin Liquid
• 1. Test compounds were dissolved at 3 mM DMSO stock solution. Transferred 45 uL of stock solution to a 384 pp-plate. Perform 3-fold, 10-point dilution via transferring 15 uL compound into 30 uL DMSO by using TECAN liquid handler. • 2. The plates were spinned at room temperature at 1,000 RPM for 1 minute. • 3. Transferred 50 nL of diluted compound from compound source plate into the cell plate by Echo. • 4. After compound treatment for 6 hours, removed the plate from incubators and equilibrated at room temperature for 15 minutes. Prepared the HiBit reagent consists of the following ratios: 10 mL of Nano-Glo®-HiBiT Lytic Buffer, 200 uL of Nano-Glo®-HiBiT Lytic Substrate and 100 uL of LgBiT Protein, mixed thoroughly. Added 20 uL of HiBit reagent into each well and spinned the plates at room temperature at 1,000 RPM for 1 minute to be detected. Plates were then shaken at 600 RPM at room temperature for 20 minutes, and read by EnVision. • 5. The inhibition activity was calculated following the formula below:
[formula] • Note: Where HC was obtained from cells treated with 0.1% DMSO only; LC was obtained from culture medium only. • 6. The ABS DC50 was calculated by fitting the Curve using Xlfit (v5.3.1.3), equation 201: […]

T2 sequence (P24864 whole entry): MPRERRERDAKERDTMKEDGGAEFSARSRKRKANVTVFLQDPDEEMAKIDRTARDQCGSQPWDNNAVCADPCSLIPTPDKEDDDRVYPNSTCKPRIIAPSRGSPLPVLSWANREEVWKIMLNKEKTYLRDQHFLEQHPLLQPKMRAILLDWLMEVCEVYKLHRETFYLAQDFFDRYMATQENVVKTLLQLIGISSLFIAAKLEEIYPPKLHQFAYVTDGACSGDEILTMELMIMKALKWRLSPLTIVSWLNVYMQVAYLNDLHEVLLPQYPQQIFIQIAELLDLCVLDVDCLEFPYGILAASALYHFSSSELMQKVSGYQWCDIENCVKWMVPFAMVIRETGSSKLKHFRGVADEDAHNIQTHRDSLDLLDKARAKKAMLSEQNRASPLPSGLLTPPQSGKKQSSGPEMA
T3 sequence (P50750 whole entry): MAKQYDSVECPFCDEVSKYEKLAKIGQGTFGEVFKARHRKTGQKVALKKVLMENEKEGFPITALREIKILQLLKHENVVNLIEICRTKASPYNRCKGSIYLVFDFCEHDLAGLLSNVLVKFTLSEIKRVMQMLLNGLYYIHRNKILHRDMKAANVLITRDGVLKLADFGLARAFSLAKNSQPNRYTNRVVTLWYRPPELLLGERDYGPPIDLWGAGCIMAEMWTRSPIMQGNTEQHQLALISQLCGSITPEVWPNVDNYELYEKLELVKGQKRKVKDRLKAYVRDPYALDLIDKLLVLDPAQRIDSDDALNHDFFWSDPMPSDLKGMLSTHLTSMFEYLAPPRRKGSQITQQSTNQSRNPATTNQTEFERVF

Row | CDK2 HIBIT Protein Quantification Maximum (CDK2) [%] | DC50 (CDK2) [nM] | CCNE1 HIBIT Protein Quantification Maximum (CCNE1) [%] | CDK9 HIBIT Protein Quantification Maximum (CDK9) [%] | Dmax (CDK9; 6 h) [%] | DC50 (CDK9; ABS DC50) [nM] | Compound | Dmax (CDK9) [%]
1 | 88 | 5.66 | 47 | 23 | – | – | CC(c1cc(S(=O)(=O)N2CC[C@H](Nc3ncc4c(n3)N([C@@H]3CCC[C@@H](O)C3)C(=O)C43CC3)[C@H](F)C2)ccc1F)N1CCC(c2ccc3c(N4CCC(=O)NC4=O)nn(C)c3c2)CC1 (single isomer, unassigned) [Compound 201, 1-(6-{1-[(1R*)-1-{2-Fluoro-5-[(3R,4S)-3-fluoro-4-{7′-[(1R,3R)-3-hydroxycyclohexyl]-6′-oxospiro[cyclopropane-1,5′-pyrrolo[2,3-d]pyrimidin]-2′-ylamino}piperidin-1-ylsulfonyl]phenyl}ethyl]piperidin-4-yl}-1-methylindazol-3-yl)-1,3-diazinane-2,4-dione] | –
2 | 88 | 10.9 | 37 | – | 20 | – | CC(C)[C@H]1CN([C@@H](C)c2cccc(S(=O)(=O)N3CC[C@H](Nc4ncc5c(n4)N([C@@H]4CCC[C@@H](O)C4)C(=O)C54CC4)[C@H](F)C3)c2)CCN1c1ccc2c(N3CCC(=O)NC3=O)nn(C)c2c1 (single isomer, unassigned) [Compound 202] | –
3 | 61 | 9.23 | 26 | – | 14 | – | O=C1CCC(N2Cc3cc(N4CCN(C5CN(c6cccc(S(=O)(=O)N7CCC(Nc8ncc9c(n8)N([C@H]8CCC[C@H](O)C8)C(=O)C98CC8)CC7)c6)C5)CC4)ccc3C2=O)C(=O)N1 (stereo in doubt) [Compound 133, 3-[5-(4-{1-[3-(4-{7′-[(1S,3S)-3-Hydroxycyclohexyl]-6′-oxospiro[cyclopropane-1,5′-pyrrolo[2,3-d]pyrimidin]-2′-ylamino}piperidin-1-ylsulfonyl)phenyl]azetidin-3-yl}piperazin-1-yl)-1-oxo-3H-isoindol-2-yl]piperidine-2,6-dione] | –
4 | 85 | 10.2 | 34 | – | 18 | – | CC(C)[C@H]1CN([C@H](C)c2cccc(S(=O)(=O)N3CC[C@H](Nc4ncc5c(n4)N([C@@H]4CCC[C@@H](O)C4)C(=O)C54CC4)[C@H](F)C3)c2)CCN1c1ccc2c(N3CCC(=O)NC3=O)nn(C)c2c1 (stereo in doubt) [Compound 203] | –
5 | 23 | – | – | – | 7 | – | CC1CCCC1N1C(=O)C2(CC2)c2cnc(NC3CCN(S(=O)(=O)C4CCCN(C(=O)CCCCc5ccc6c(c5)n(C)c(=O)n6C5CCC(=O)NC5=O)C4)CC3)nc21 (stereo not shown) [Compound 115] | –
6 | 88 | 12.1 | 40 | – | – | – | C[C@@H](c1cc(S(=O)(=O)N2CC[C@H](Nc3ncc4c(n3)N([C@@H]3CCC[C@@H](O)C3)C(=O)C43CC3)[C@H](F)C2)ccc1F)N1CCN(c2ccc3c(N4CCC(=O)NC4=O)nn(C)c3c2)CC1 [Compound 211] | –

Further lines, the molecule ahead of its results:

Row | Compound | CDK2 HIBIT Protein Quantification Maximum (CDK2) [%] | DC50 (CDK2) [nM] | CCNE1 HIBIT Protein Quantification Maximum (CCNE1) [%] | CDK9 HIBIT Protein Quantification Maximum (CDK9) [%] | Dmax (CDK9; 6 h) [%] | DC50 (CDK9; ABS DC50) [nM] | Dmax (CDK9) [%]
7 | Cn1nc(N2CCC(=O)NC2=O)c2ccc(C3CCN(Cc4cncc(S(=O)(=O)N5CCC(Nc6ncc7c(n6)N([C@H]6CCC[C@H](O)C6)C(=O)C76CC6)CC5)c4)CC3)cc21 (stereo in doubt) [Compound 161, 1-[6-(1-{[5-(4-{7′-[(1S,3S)-3-Hydroxycyclohexyl]-6′-oxospiro[cyclopropane-1,5′-pyrrolo[2,3-d]pyrimidin]-2′-ylamino}piperidin-1-ylsulfonyl)pyridin-3-yl]methyl}piperidin-4-yl)-1-methylindazol-3-yl]-1,3-diazinane-2,4-dione] | 79 | 6.06 | 45 | – | – | – | 17
8 | CC1CCCC1N1C(=O)C2(CC2)c2cnc(NC3CCN(S(=O)(=O)N4CC5(CCN(C(=O)Cc6cccc7c6n(C)c(=O)n7C6CCC(=O)NC6=O)CC5)C4)CC3)nc21 (stereo not shown) [Compound 15] | 27 | – | 15 | – | -3 | – | –
9 | CC1CCCC1N1C(=O)C2(CC2)c2cnc(NC3CCN(S(=O)(=O)N4CC5CN(C(=O)CCc6cccc7c6n(C)c(=O)n7C6CCC(=O)NC6=O)CC5C4)CC3)nc21 (stereo not shown) [Compound 16] | 49 | – | 17 | – | 57 | 3.67 | –
10 | CC1CCCC1N1C(=O)C2(CC2)c2cnc(NC3CCN(S(=O)(=O)N4CCC5(CCCN5C(=O)CCc5cccc6c5n(C)c(=O)n6C5CCC(=O)NC5=O)C4)CC3)nc21 (stereo not shown) [Compound 17] | 54 | 17 | 26 | – | 26 | – | –
11 | CC1CCCC1N1C(=O)C2(CC2)c2cnc(NC3CCN(S(=O)(=O)N4CC5(CCN(C(=O)Cc6ccc7c(c6)n(C)c(=O)n7C6CCC(=O)NC6=O)CC5)C4)CC3)nc21 (stereo not shown) [Compound 54] | 14 | – | – | – | 4 | – | –
12 | CC1CCCC1N1C(=O)C2(CC2)c2cnc(NC3CCN(S(=O)(=O)N4CC5C4CCN5C(=O)CCCCc4cccc5c4n(C)c(=O)n5C4CCC(=O)NC4=O)CC3)nc21 (stereo not shown) [Compound 98] | 31 | – | – | – | 15 | – | –
